Results published in PubChem BioAssay (NCI).
“And” between values parts separate entries of the source, which are not always exact repeats. Equal values may be shown once.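 How tested: cells in 96-well plates exposed to compound for 48 hours at five concentrations. At the GI50, growth is halved. Definition used: TGI = concentration required for complete inhibition of growth.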

Legend:
Assay in all cases: NCI tumour cell line growth inhibition, 48 h
[1] = test system: HOP-18 NSCLC
[2] = test system: KM20L2 colon
[3] = test system: XF 498 CNS
[4] = test system: LXFL 529 NSCLC
[5] = test system: SNB-78 CNS
[6] = test system: M19-MEL melanoma
[7] = test system: DLD-1 colon
[8] = test system: MDA-N
[9] = test system: RXF-631 renal
[10] = test system: P388/ADR leukemia
[11] = test system: SN12K1 renal
[12] = test system: P388 leukemia

SMILES | TGI [1] | TGI [2] | TGI [3] | TGI [4] | TGI [5] | TGI [6] | TGI [7] | TGI [8] | other results
OCC(O)COc1c(Cl)ccc(Cl)c1Cl (stereo unspecified) | > 100 µM | > 100 µM | > 100 µM | > 100 µM | > 100 µM | > 100 µM | > 100 µM |  | 
COc1ccc2[nH]c(-c3cccc(N(C)C)c3)cc(=O)c2c1 |  |  |  |  |  |  |  | 0.156 µM | 
O=C(O)C(Br)C(Br)c1ccccc1[N+](=O)[O-] (stereo unspecified) |  |  |  |  |  |  |  | > 100 µM | 
O=C(O)c1ccc(S(=O)(=O)N=Nc2c(O)[nH]c3ccccc23)cc1 |  |  |  |  |  |  |  | > 100 µM | 
Fc1ccc(F)c(C2SCc3nc4ccccc4n32)c1 (stereo unspecified) | > 100 µM | > 100 µM |  | > 100 µM | > 100 µM | > 100 µM | > 100 µM |  | 
COc1ccc(/C=C/c2nc(=S)[nH][nH]2)cc1 |  | > 100 µM | > 100 µM | > 100 µM | > 100 µM | > 100 µM | > 100 µM |  | TGI [9]: > 100 µM
N#CCC(=O)N/N=C1/C(=O)NC(=O)C(=O)C1c1nc2ccccc2s1 (stereo unspecified) | > 100 µM | > 100 µM |  | > 100 µM | > 100 µM | > 100 µM | > 100 µM |  | TGI [9]: > 100 µM
COc1cccc2c1cc([N+](=O)[O-])c1c(C(=O)O)cc3c(c12)OCO3 |  |  |  |  |  |  |  | > 100 µM | 
COc1ccc(CCNCc2cccc(OC)c2OC)cc1OC |  | > 100 µM | > 100 µM | > 100 µM | > 100 µM | > 100 µM | > 100 µM |  | TGI [9]: > 100 µM
COc1ccc(/C(Cl)=C(\C=O)c2ccc(OC)c(OC)c2)cc1OC | > 100 µM | > 100 µM | > 100 µM |  | > 100 µM | > 100 µM | > 100 µM | > 100 µM | TGI [10]: > 85.8 µM; TGI [11]: > 100 µM; TGI [12]: > 100 µM
CC(C)CC(CNC(Cc1ccc(Cl)cc1)C(N)=O)NC(=O)C(Cc1cnc[nH]1)NC(=O)CNC(=O)C(NC(=O)C(C)NC(=O)C(Cc1c[nH]c2ccccc12)NC(=O)C(CCC(=O)O)NC(=O)C(N)Cc1ccccc1)C(C)C (stereo unspecified) |  | > 133 µM | > 133 µM | > 133 µM | > 133 µM | > 133 µM | > 133 µM |  | TGI [9]: > 133 µM
CC(=O)OCC(OC(C)=O)C(OC(C)=O)C(OC(C)=O)C(=O)CNn1c(-c2ccccc2)nc2ccc(Br)cc2c1=O (stereo unspecified) |  | > 100 µM | > 100 µM | > 100 µM | > 100 µM | > 100 µM |  |  | 
O=C(CCc1ccccc1)On1nnc2ccccc2c1=O |  | > 100 µM |  | > 100 µM | > 100 µM | > 100 µM | > 100 µM |  | 
O=C(CCC(=O)N/N=C/c1ccccc1O)N/N=C/c1ccccc1O |  | > 100 µM |  | > 100 µM | > 100 µM | > 100 µM |  |  | 
O=C1OC(c2ccccc2)=N/C1=C\c1c(O)cc(O)cc1O | > 100 µM | > 100 µM |  | > 100 µM | > 100 µM | > 100 µM |  |  | 
O=[N+]([O-])c1cc(Cl)cc2c1nc(NCCO)c1ccccc12 |  |  |  |  |  |  |  | > 100 µM | 
CS(=O)(=O)OCCN(CCOS(C)(=O)=O)c1ccc(C=Nc2ccc3oc(=O)ccc3c2)cc1 |  | > 100 µM |  | 36.4 µM | 12.5 µM | 39 µM |  | 35.8 µM | 
COc1cc(OC)c(OC)cc1/C=C1\C=Cc2ccccc21 |  |  |  |  |  |  |  | 58.2 µM | 
Cc1cccc2c1Oc1cc(Cl)ccc1C2NC(=O)CN(C)C (stereo unspecified) |  | 41.2 µM |  | > 100 µM | > 100 µM | 47.6 µM | > 100 µM |  | 

SMILES | TGI [1] | TGI [2] | TGI [3] | TGI [4] | TGI [5] | TGI [6] | TGI [7] | TGI [8] | other results
Cc1[nH]c(=O)nc(CC(O)(c2ccccc2)c2ccccc2)c1-c1ccccc1 | > 100 µM | > 100 µM |  | > 100 µM | > 100 µM | > 100 µM | > 100 µM |  | TGI [9]: > 100 µM
COC1(OC)CC2C(=O)N(Cc3ccccc3)C1CC2S(=O)(=O)c1ccccc1 (stereo unspecified) | > 100 µM |  | 98.7 µM |  |  | > 100 µM | > 100 µM |  | 
O=C1C=CN(C2OC(CO)C(O)C2O)C(=O)C1 (stereo unspecified) | > 2500 µM | 625 µM and > 1160 µM | 1940 µM |  |  | 1370 µM | 625 µM and > 2500 µM | > 2500 µM | GI50 [1]: > 625 µM; GI50 [2]: 19.9 µM; TGI [10]: > 992 µM; GI50 [3]: 409 µM; GI50 [11]: 24.7 µM and 14.4 µM; TGI [11]: 625 µM and > 810 µM; TGI [12]: 52.5 µM; GI50 [7]: 21.5 µM
CCc1ccccc1-n1c2nc(=O)n(C)c(=O)c-2nc2ccccc21 | 25 µM |  | 22 µM | 24.8 µM | 38.5 µM | 3.69 µM | 45.2 µM |  | 
CCOC(=O)CC1=NC(=Nc2cc(Cl)ccc2Cl)SC1 | > 100 µM | > 100 µM | > 100 µM | > 100 µM | > 100 µM | > 100 µM | > 100 µM |  | 
CC1CCCN(CC(O)CN2CCCc3ccccc32)C1 (stereo unspecified) |  |  |  |  |  |  |  | > 100 µM | 
O=C(N/C(=C\c1ccc(Br)cc1)c1nc2ccccc2s1)c1ccccc1 | > 100 µM | > 100 µM | > 100 µM | > 100 µM | > 100 µM | > 100 µM | > 100 µM |  | TGI [9]: > 100 µM
COC(=O)C1=C(c2cc(OC)c(OC)c(OC)c2)OC(c2cc(OC)c(OC)c(OC)c2)C1COC(C)=O (stereo unspecified) |  | > 100 µM | > 100 µM | > 100 µM | > 100 µM | > 100 µM | > 100 µM |  | TGI [9]: 45.1 µM
O=C(N=Nc1c(O)[nH]c2c(Cl)cc(Cl)cc12)c1ccncc1 |  |  |  |  |  |  |  | 29.1 µM | 
O=C1NC(=O)C2(CCC(O)C2)c2cc[n+]([O-])cc21 (stereo unspecified) |  |  |  |  |  |  |  | > 100 µM | 
CN(/N=C/c1ccnc2ccccc12)c1ccc([N+](=O)[O-])cc1[N+](=O)[O-] | > 100 µM | > 100 µM | > 100 µM | > 100 µM | > 100 µM | > 100 µM | > 100 µM |  | 
CC1CCC2C(C)C3C(CC4C5CC=C6CC(OC7OC(CO)C(O)C(OC8OC(CO)C(O)C(O)C8O)C7OC7OC(C)C(O)C(O)C7O)CCC6(C)C5CCC43C)N2C1 (stereo unspecified) |  |  |  |  |  |  |  | 23.7 µM and > 2.5 µg/mL | GI50 [8]: > 2.5 mg/L
O=C(CCCNC(=O)OCc1ccccc1)OCc1ccc2c(c1)C(=O)c1ccccc1C2=O |  | > 100 µM |  | > 100 µM | > 94.3 µM |  | > 100 µM |  | TGI [9]: > 100 µM
CCc1ccc(/C(C)=N/NC(N)=S)cc1 | > 100 µM | > 100 µM | 82.6 µM |  | > 100 µM | > 100 µM |  |  | 
NS(=O)(=O)c1ccc(NC(=O)CC(=O)Nc2ccc(S(N)(=O)=O)cc2)cc1 | > 100 µM | > 100 µM |  | > 100 µM | > 100 µM | > 100 µM | > 100 µM |  | 
c1ccc2cc(OCC3CO3)c(OCC3CO3)cc2c1 (stereo unspecified) |  |  |  |  |  |  |  | 22.9 µM | 
CCCCSCc1nc2nc(Cl)c(Cl)nc2[nH]1 |  |  |  |  |  |  |  | 65.9 µM | 
O=C(/C=C/c1c(O)ccc2ccccc12)c1cccc2ccccc12 | > 100 µM | > 100 µM | > 100 µM | > 100 µM | > 100 µM | 71.9 µM | > 100 µM |  | 
